Results from patent US4018754A, “Novel polypeptides having ACTH-like action” (Shionogi & Co., Ltd., priority 1974, dated 1977).
Where two headings read alike, the source gives them in different places. Where a SMILES comes first, the peptide text is derived from it. Where no end group is shown, it is not given here. [ ]: non-standard residue; d: D form. Aib = CC(C)(N)C(=O)O

Columns and labels:
[1] = system: hypophysectomized rat
[2] = system: hypophysectomized rat; remark: listed apart in the source
Protocol: The adrenal-stimulating activity by the intramuscular administration to hypophysectomized rat was also determined, where a peptide preparation was injected into the thigh muscle and a blood sample was collected from the abdominal aorta 30 minutes after the injection. Throughout the experiment, the USP Corticotropin Reference Standard was used as a standard and the production of 11-hydroxycorticosteroids was determined by the fluorophotometric method of Peterson [J. Biol. Chem. 225 25 (1975)].

[3] = system: rats; conditions: i.m. for 2 days
Protocol: The effect on adrenal growth and thymus involution was determined in the following manner: peptides were intramuscularly injected into rats weighing 100-150 g at a dose of 20μg and 100 μg/rat/day for 2 days, respectively. The rats were then submitted to autopsy 24 hours after the last injection, and then the adrenal and thymus were weighed respectively.

[4] = system: melanocyte
Protocol: The in vivo melanocyte-stimulating activity was determined according to the method of A. Tanaka described in Endocrinol.

[5] = system: rats; experiment: Protracted action: time course of plasma 11-OHCS level after i.m. or i.v. injection; type: in vivo; conditions: rats 100-120 g, 5 μg/rat intramuscularly or intravenously
Protocol: The protracted action of the present polypeptides, e.g., [Aib^1,Lys^17,18,19 ]--ACTH(1-19)--NH2, was studied using rats weighing 100-120 g. Synthetic human ACTH, Cortrosyn--Z^R (zinc complex suspension of ACTH(1-24)--OH)and [Gly^1 ]--ACTH(1-18)--NH2 were used for comparison. The petides were intramuscularly or intravenously injected into rats at a dose of 5 μg/rat, and then the production of 11-hydroxycorticosteroids (11-OHCS) was determined. Time course of 11-OHCS level in the plasma when the peptides were administered intramuscularly and intravenously is shown in FIG. 2, respectively. […] Cortrosyn-Z is the only ACTH preparation which has been used for therapeutical purpose, though it has rather strong melanocyte stimulating activity (c.f. Table 1). […] In FIG. 2, Cortrosyn-Z (suspension of a zinc complex of ACTH(1-24)--OH) is not shown, because the suspension cannot be used through intravenous route.

Molecule | Adrenal-stimulating activity i.v. (relative potency) ([1]; rat, in vivo, iv) | Adrenal-stimulating activity i.m. (relative potency) ([2]; rat, in vivo) | effects on adrenal growth and thymus involution (in words) [3] | Melanocyte-stimulating activity in vivo (b), relative potency [4] | Protracted adrenal-stimulating action (time course of plasma 11-OHCS level) ([5]; Lys^17,18,19 ]--ACTH(1-19)--NH2) | Adrenal-stimulating activity i.v. (relative potency) ([1]; hypophysectomized rat, femoral vein injection, blood sample 30 minutes after injection, USP Corticotropin Reference Standard as standard) | Adrenal-stimulating activity i.m. (relative potency) ([2]; hypophysectomized rat, thigh muscle injection, blood sample 30 minutes after injection, USP Corticotropin Reference Standard as standard) | Protracted adrenal-stimulating action (time course of plasma 11-OHCS level) [5]
GYSMEHFRWGKPVGKKRR-NH2 [[Gly^1]-ACTH(1-18)-NH2, [Gly^1]--ACTH(1-18)--NH2, reference compound] | 1.0 | 1.0 | very weak | 0.11 | – | – | – | –
CSCC[C@H](NC(=O)[C@H](CO)NC(=O)[C@H](Cc1ccc(O)cc1)NC(=O)C(C)(C)N)C(=O)N[C@@H](CCC(=O)O)C(=O)N[C@@H](Cc1c[nH]cn1)C(=O)N[C@@H](Cc1ccccc1)C(=O)N[C@@H](CCCNC(=N)N)C(=O)N[C@@H](Cc1c[nH]c2ccccc12)C(=O)NCC(=O)N[C@@H](CCCCN)C(=O)N1CCC[C@H]1C(=O)N[C@H](C(=O)NCC(=O)N[C@@H](CCCCN)C(=O)N[C@@H](CCCCN)C(=O)N[C@@H](CCCCN)C(=O)N[C@@H](CCCCN)C(=O)N[C@@H](CCCCN)C(N)=O)C(C)C [[Aib^1,Lys^17,18,19]-ACTH(1-19)-NH2, Aib--Tyr--Ser--Met--Glu--His--Phe--Arg--Trp--Gly--Lys--Pro--Val--Gly--Lys- -Lys--Lys--Lys--Lys--NH2] (H-[Aib]YSMEHFRWGKPVGKKKKK-NH2) | 5.7 | 7.8 | – | 0.11 | very protracted action | – | – | –
CSCC[C@H](NC(=O)[C@H](CO)NC(=O)[C@H](Cc1ccc(O)cc1)NC(=O)C(C)(C)N)C(=O)N[C@@H](CCC(=O)O)C(=O)N[C@@H](Cc1c[nH]cn1)C(=O)N[C@@H](Cc1ccccc1)C(=O)N[C@@H](CCCNC(=N)N)C(=O)N[C@@H](Cc1c[nH]c2ccccc12)C(=O)NCC(=O)N[C@@H](CCCCN)C(=O)N1CCC[C@H]1C(=O)N[C@H](C(=O)NCC(=O)N[C@@H](CCCCN)C(=O)N[C@@H](CCCCN)C(=O)N[C@@H](CCCCN)C(=O)N[C@@H](CCCCN)C(=O)N[C@@H](CCCCN)C(=O)N[C@@H](CCCCN)C(N)=O)C(C)C [[Aib^1,Lys^17,18,19,20]-ACTH(1-20)-NH2, Aib--Tyr--Ser--Met--Glu--His--Phe--Arg--Trp--Gly--Lys--Pro--Val--Gly--Lys- -Lys--Lys--Lys--Lys--Lys--NH2] (H-[Aib]YSMEHFRWGKPVGKKKKKK-NH2) | 6.3 | 10.7 | – | 0.15 | – | – | – | –
Native ACTH: native corticotropin (ACTH), native hormone used for comparison (SYSMEHFRWGKPVGKKRRPVKVYPNGAEDESAEAFPLEF; Corticotropin; UniProt P01189 138-176, looked up) | – | – | very weak | – | – | 1.0 | 4.0 | –
CSCC[C@H](NC(=O)[C@H](CO)NC(=O)[C@H](Cc1ccc(O)cc1)NC(=O)C(C)(C)N)C(=O)N[C@@H](CCC(=O)O)C(=O)N[C@@H](Cc1c[nH]cn1)C(=O)N[C@@H](Cc1ccccc1)C(=O)N[C@@H](CCCNC(=N)N)C(=O)N[C@@H](Cc1c[nH]c2ccccc12)C(=O)NCC(=O)N[C@@H](CCCCN)C(=O)N1CCC[C@H]1C(=O)N[C@H](C(=O)NCC(=O)N[C@@H](CCCCN)C(=O)N[C@@H](CCCCN)C(=O)N[C@@H](CCCCN)C(=O)N[C@@H](CCCCN)C(N)=O)C(C)C [[Aib^1,Lys^17,18]-ACTH(1-18)-NH2, [Aib^1,Lys^17,18]--ACTH(1-18)--NH2, reference compound] (H-[Aib]YSMEHFRWGKPVGKKKK-NH2) | 9.3 | 9.4 | – | 0.82 | – | – | – | –
CSCC[C@H](NC(=O)[C@H](CO)NC(=O)[C@H](Cc1ccc(O)cc1)NC(=O)C(C)(C)N)C(=O)N[C@@H](CCC(=O)O)C(=O)N[C@@H](Cc1c[nH]cn1)C(=O)N[C@@H](Cc1ccccc1)C(=O)N[C@@H](CCCNC(=N)N)C(=O)N[C@@H](Cc1c[nH]c2ccccc12)C(=O)NCC(=O)N[C@@H](CCCCN)C(=O)N1CCC[C@H]1C(=O)N[C@H](C(=O)NCC(=O)N[C@@H](CCCCN)C(=O)N[C@@H](CCCCN)C(=O)N[C@@H](CCCNC(=N)N)C(=O)N[C@@H](CCCNC(=N)N)C(N)=O)C(C)C [[Aib^1]-ACTH(1-18)-NH2, [Aib^1]--ACTH(1-18)--NH2, reference compound] (H-[Aib]YSMEHFRWGKPVGKKRR-NH2) | 4.1 | 9.9 | – | 1.00 | – | – | – | –
CSCC[C@H](NC(=O)[C@H](CO)NC(=O)[C@H](Cc1ccc(O)cc1)NC(=O)C(C)(C)N)C(=O)N[C@@H](CCC(=O)O)C(=O)N[C@@H](Cc1c[nH]cn1)C(=O)N[C@@H](Cc1ccccc1)C(=O)N[C@@H](CCCNC(=N)N)C(=O)N[C@@H](Cc1c[nH]c2ccccc12)C(=O)NCC(=O)N[C@@H](CCCCN)C(=O)N1CCC[C@H]1C(=O)N[C@H](C(=O)NCC(=O)N[C@@H](CCCCN)C(=O)N[C@@H](CCCCN)C(=O)N[C@@H](CCCCN)C(=O)N[C@@H](CCCCN)C(=O)N[C@@H](CCCCN)C(N)=O)C(C)C [[Aib^1, Lys^17,18,19]--ACTH(1-19)-- NH2] (H-[Aib]YSMEHFRWGKPVGKKKKK-NH2) | – | – | – | – | – | – | – | protracted to almost the same extent as that produced by Cortrosyn-Z
